{
  "source": "paper PMC9894685",
  "about": "“Abscisic acid agonists suitable for optimizing plant water use” (Frontiers in Plant Science, 2023)",
  "key": {"RCAR11-ABI2": {"tested_on": "RCAR11-ABI2", "experiment": "Yeast ABA signal pathway LUC reporter, RCAR11-ABI2", "format": "cell-based, Arabidopsis thaliana", "description": "(§1) The yeast cultivation and the life luciferase assay were performed as described ([Ruschhaupt et al., 2019]). Briefly, the reporter yeast expressing an ABA-dependent luciferase gene (LUC) was transformed with different combinations of ABA signaling components as indicated. Golden gate cloning ([Binder et al., 2014]) was used to construct pYEAST_LII_5‐6_CEN_URA vector with TDH3 promoter and TDH1 terminator (tTDH1), pYEAST_LII_1‐2_CEN_LEU vector with GK1 promoter and tTDH1, and pYEAST_LII_3‐4_CEN_TRP with the GAL1 promoter (pGAL1) and tTDH1 to express RCARs, PP2Cs, and OST1 (SnRK2.6), respectively ([Ruschhaupt et al., 2019]). The expression of ABF2 in yeast relies on a modified pGREG503 vector, in which pGAL1 ([Jansen et al., 2005]) was replaced by the ADH1 promoter.\n(§2) Colonies of freshly transformed cells were inoculated in 0.5 mL supplemented synthetic dextrose (SD) medium and incubated at 30°C in a gyratory shaker (Thermoshake-THO500, Gerhardt, Königswinter, Germany) at 200 rpm for 16-18 h. After overnight growth, the cells were harvested and washed in SD medium followed by inoculation in SD medium containing 2% galactose for induction of SnRK2 kinases under the control of the GAL1 promoter and supplementation with ligands at indicated concentrations, to an OD600 of 0.2 in flat-bottom 96-well plates (CytoOne, Starlab, Hamburg, Germany). Yeast cultures were incubated at 30°C and 200 rpm for 16-18 h before determination of LUC activity and cell density. Light emission of yeasts was detected in a HIDEX plate luminometer (HIDEX, Turku, Finland) after injection of 100 µL freshly prepared luciferin substrate (1 mM D-luciferin, Promega) provided in 100 mM citric acid, pH 3 ([Leskinen et al., 2003]) for 5 s and was corrected for background. The LUC activity was normalized to the cell density (OD600) measured in 96-well flat plates (Sarstedt, Nümbrecht, Germany). LUC activity is given as the ratio of light emission to OD600 in counts per second."}, "Arabidopsis plants": {"tested_on": "Arabidopsis plants", "experiment": "Foliar administration and thermal imaging of leaf temperature (transpiration), Arabidopsis", "format": "in vivo, Arabidopsis thaliana"}, "RCAR8-ABI2": {"molecular_target": "RCAR8-ABI2", "experiment": "In vitro phosphatase assay, ABI2 with RCAR8", "format": "biochemical, Arabidopsis thaliana", "conditions": "100 nM ABI2, 200 nM RCAR8", "description": "Expression, purification, and analysis of RCAR and PP2C proteins were performed essentially as described ([Ruschhaupt et al., 2019]). Briefly, the ABA receptors RCAR1, RACR8, and RCAR11 were expressed with an aminoterminal histidine tag using the pSEVA431_LII_6xHIS::RCAR1/RCAR8/RCAR11. ABA coreceptors were expressed as histidine-tagged fusions with the maltose-binding protein using the pSEVA431_LII_6xHIS::MBP::ABI2/HAB1. All constructs were transformed and expressed in Escherichia coli strain BL21 and purified to homogeneity according to supplier’s instruction (GE Healthcare, Chicago, USA). The receptor assay was performed with 100 nM PP2C and a two-fold molar excess of RCAR. Values are means ± SD of three replicates. […] The maximum inhibition was set to 100% in the figures. The phosphatase activity was measured using 4-methylumbelliferyl-phosphate as a substrate ([Meinhard and Grill, 2001]). The increase in fluorescence was recorded over 25 min with excitation and emission wavelengths at 360 and 460 nm, respectively, using a Synergy 2 plate reader (Bio-Tec, Winooski, USA)."}, "[1]": {"tested_on": "Arabidopsis aba2-1 protoplasts", "experiment": "Transient ABA response in Arabidopsis protoplasts (pRD29B::LUC, RCAR11 and ABI2 effectors)", "format": "cell-based, Arabidopsis thaliana", "conditions": "aba2-1 protoplasts, 18 h ligand exposure", "description": "Preparation of Arabidopsis protoplasts, transfection of the effector DNA, and analysis of LUC activity were performed as described ([Tischer et al., 2017]). In essence, 10^5 mesophyll protoplasts from leaves of the ABA deficient mutant aba2-1 ([Schwartz et al., 1997]) were transfected with 4 µg DNA of the pRD29B::LUC construct as an ABA-responsive reporter and 3 µg of p35S::GUS (β-glucuronidase reporter gene) expression cassette as an internal control for normalization. In addition, 3 µg p35S::RCAR11 or the empty vector with the same expression cassette were co-expressed with 0.1 µg p35S::ABI2 effector constructs ([Tischer et al., 2017]), and the ligand-dependent induction of ABA-responsive reporter expression were assessed after incubation at 22°C. The expression of LUC and GUS was determined 18 h after transfection and ligand administration."}, "RCAR8/PYL5-ABI2": {"tested_on": "T1, RCAR8/PYL5-ABI2", "T1 construct": "expressed in transfected cells; host or cells: yeast (LUC reporter strain)", "experiment": "Yeast ABA signal pathway LUC reporter, RCAR8-ABI2", "format": "cell-based, Arabidopsis thaliana", "description": "as §1, §2"}},
  "data": [
    {"compound": "CCC(=C/C(=O)O)/C=C/C(O)(C(C)C)C1(C#N)CC1", "note": "(stereo not drawn) [CCP2]", "values": [
      {"measurement": "ABA-agonistic activity in yeast LUC reporter", "setting": "RCAR11-ABI2; 30 µM, not esterase-treated", "result": "revealed an ABA-agonistic activity"},
      {"measurement": "Activation of the ABA response compared to ABA", "setting": "RCAR11-ABI2; dose-dependent, 0.1-30 µM", "result": "comparable activity to ABA"},
      {"measurement": "Efficiency in minimizing transpiration compared to ABA", "setting": "Arabidopsis plants; foliar application", "result": "by an order of magnitude more efficient than ABA"},
      {"measurement": "ABA concentration achieving a temperature increase similar to 10 µM of the CCP", "setting": "Arabidopsis plants; one day after application", "result": "about 100 µM"},
      {"measurement": "Activity and persistence of minimized transpiration compared to ABA", "setting": "Arabidopsis plants; single application 100 µM, recorded for 19 days", "result": "more active and persistent than ABA"},
      {"measurement": "IC50 relative to ABA (fold higher)", "setting": "RCAR8-ABI2", "result": "~30", "unit": "fold"},
      {"measurement": "Induction of ABA signaling compared to ABA", "setting": "[1]", "result": "ABA-like activity"},
      {"measurement": "Reporter induction relative to ABA", "setting": "RCAR8/PYL5-ABI2; 1 µM exogenous ligand", "result": "no significant reporter regulation"},
      {"measurement": "Higher level required for induction value comparable to 1 µM ABA", "setting": "RCAR8/PYL5-ABI2; yeast, RCAR8-ABI2", "result": "> 30", "unit": "x"}
    ]}
  ]
}
